Test results taken from patent US20250346585A1 (Alexion Pharmaceuticals, Inc., priority 2022, published 2025).

Biological target: Human complement C1s enzyme (Homo sapiens (Human), UniProt P09871)
Assay: Human C1s enzyme assay
Assay type: biochemical
Settings: Human C1s enzyme assay of Example 3; read-out: IC50 (Stars)
How it was run: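 IC50 derived by nonlinear regression of rate versus concentration, with rate taken from A405 kinetics (30 s intervals, 30 min) after adding 100 μM each Z-L-Lys-SBzl and DTNB. C1s from human serum, 1.16 nM, exposed to compound for 5 min at RT beforehand; buffer 50 mM Tris, 1 M NaCl, pH 7.5.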

Chain of Human complement C1s enzyme (P09871 438-688 limits assumed): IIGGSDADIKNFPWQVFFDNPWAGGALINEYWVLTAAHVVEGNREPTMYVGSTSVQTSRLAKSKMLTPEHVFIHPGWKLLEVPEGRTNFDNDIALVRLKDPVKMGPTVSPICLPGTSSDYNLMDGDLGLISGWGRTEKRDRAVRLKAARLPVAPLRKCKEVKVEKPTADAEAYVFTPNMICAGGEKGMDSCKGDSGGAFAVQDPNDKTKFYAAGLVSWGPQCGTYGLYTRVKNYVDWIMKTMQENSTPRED
Chain of Human complement C1s enzyme (P09871 16-437 partner limits assumed): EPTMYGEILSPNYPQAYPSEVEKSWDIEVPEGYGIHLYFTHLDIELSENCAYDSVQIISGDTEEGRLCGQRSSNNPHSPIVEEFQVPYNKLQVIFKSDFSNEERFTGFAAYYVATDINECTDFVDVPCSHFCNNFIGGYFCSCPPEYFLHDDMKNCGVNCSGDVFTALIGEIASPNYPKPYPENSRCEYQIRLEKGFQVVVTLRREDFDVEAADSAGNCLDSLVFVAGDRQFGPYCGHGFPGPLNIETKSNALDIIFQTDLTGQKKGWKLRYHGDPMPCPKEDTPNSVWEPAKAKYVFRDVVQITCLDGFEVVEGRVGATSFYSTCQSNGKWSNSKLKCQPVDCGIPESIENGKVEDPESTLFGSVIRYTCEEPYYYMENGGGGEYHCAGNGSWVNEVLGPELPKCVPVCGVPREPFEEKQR

Compound	IC50 [µM]
C[C@@H](NC(=O)[C@@H]1C[C@@H](OC(F)F)CN1C(=O)CNC(=O)c1ccc(Oc2ccc(C(F)(F)F)cc2)cc1)c1cc(C(=N)N)cs1 [Compound 5, (2S,4R)—N—((R)-1-(4-carbamimidoylthiophen-2-yl)ethyl)-4-(difluoromethoxy)-1-((4-(4-(trifluoromethyl)phenoxy)benzoyl)glycyl)pyrrolidine-2-carboxamide]	< 0.1
C[C@H](O)[C@H](O)[C@@H](O)[C@@H](O)CNCC(=O)NCCOC[C@@]12C[C@@H]1N(C(=O)CNC(=O)CCCOc1ccccc1)[C@H](C(=O)N[C@H](C)c1cc(C(=N)N)cs1)C2 [Compound 2, (1S,3S,5R)—N—((R)-1-(4-carbamimidoylthiophen-2-yl)ethyl)-2-((4-phenoxybutanoyl)glycyl)-5-((2-(2-(((2S,3S,4S,5S)-2,3,4,5-tetrahydroxyhexyl)amino)acetamido)ethoxy)methyl)-2-azabicyclo[3.1.0]hexane-3-carboxamide]	< 0.1
C[C@@H](NC(=O)[C@@H]1CC2(CN1C(=O)CNC(=O)c1ccc3c(c1)-c1ccccc1C3(F)F)OCCO2)c1cc(-c2c[nH]cn2)cs1 [Compound 96, (S)—N—((R)-1-(4-(1H-imidazol-4-yl)thiophen-2-yl)ethyl)-7-((9,9-difluoro-9H-fluorene-3-carbonyl)glycyl)-1,4-dioxa-7-azaspiro[4.4]nonane-8-carboxamide]	0.1 to 1
C[C@@H]1C[C@@H](C(=O)N[C@H](C)c2cc(C(=N)N)cs2)N(C(=O)CNC(=O)c2ccc3c(c2)-c2ccccc2C3(F)F)C1 [Compound 62, (2S,4R)—N—((R)-1-(4-carbamimidoylthiophen-2-yl)ethyl)-1-((9,9-difluoro-9H-fluorene-3-carbonyl)glycyl)-4-methylpyrrolidine-2-carboxamide]	< 0.1
C[C@@H](NC(=O)[C@@H]1C[C@H](C2CCCCC2)CN1C(=O)CNC(=O)c1ccc(Oc2ccc(F)cc2)cc1)c1cc(C(=N)N)cs1 [Compound 93, (2S,4R)—N—((R)-1-(4-carbamimidoylthiophen-2-yl)ethyl)-4-cyclohexyl-1-((4-(4-fluorophenoxy)benzoyl)glycyl)pyrrolidine-2-carboxamide]	< 0.1
Cc1ccccc1[C@H]1C[C@@H](C(=O)N[C@H](C)c2cc(C(=N)N)cs2)N(C(=O)CNC(=O)c2ccc3c(c2)-c2ccccc2C3(F)F)C1 [Compound 119, (2S,4R)—N—((R)-1-(4-carbamimidoylthiophen-2-yl)ethyl)-1-((9,9-difluoro-9H-fluorene-3-carbonyl)glycyl)-4-(o-tolyl)pyrrolidine-2-carboxamide]	< 0.1
Cc1ccc(Oc2ccc(C(=O)NCC(=O)N3[C@H]4C[C@@]4(C)C[C@H]3C(=O)N[C@H](C)c3ccc(C(=N)N)s3)cc2)cc1 [Compound 26, (1S,3S,5S)—N—((R)-1-(5-carbamimidoylthiophen-2-yl)ethyl)-5-methyl-2-((4-(p-tolyloxy)benzoyl)glycyl)-2-azabicyclo[3.1.0]hexane-3-carboxamide]	< 0.1
C[C@@H](NC(=O)[C@@H]1CC2(CN1C(=O)CNC(=O)c1ccc3c(c1)-c1ccccc1C3(F)F)OCCO2)c1cc(C(=N)N)cs1 [Compound 21, (S)—N—((R)-1-(4-carbamimidoylthiophen-2-yl)ethyl)-7-((9,9-difluoro-9H-fluorene-3-carbonyl)glycyl)-1,4-dioxa-7-azaspiro[4.4]nonane-8-carboxamide]	< 0.1
N=C(N)c1csc(CNC(=O)[C@@H]2CC3(CN2C(=O)CNC(=O)c2ccc(-c4cnc5[nH]ccc5c4)cc2)OCCO3)c1 [Compound 195, (S)-7-((4-(1H-pyrrolo[2,3-b]pyridin-5-yl)benzoyl)glycyl)-N-((4-carbamimidoylthiophen-2-yl)methyl)-1,4-dioxa-7-azaspiro[4.4]nonane-8-carboxamide]	< 0.1
C[C@@H](NC(=O)[C@@H]1C[C@@H](S(C)(=O)=O)CN1C(=O)CNC(=O)c1ccc(Oc2ccc(F)cc2)cc1)c1cc(C(=N)N)cs1 [Compound 54, (2S,4R)—N—((R)-1-(4-carbamimidoylthiophen-2-yl)ethyl)-1-((4-(4-fluorophenoxy)benzoyl)glycyl)-4-(methylsulfonyl)pyrrolidine-2-carboxamide]	< 0.1
N=C(N)c1csc(CNC(=O)[C@@H]2CC3(CN2C(=O)CNC(=O)c2ccc(-c4ccc(F)cc4F)cc2)OCCO3)c1 [Compound 107, (S)—N-((4-carbamimidoylthiophen-2-yl)methyl)-7-((2′,4′-difluoro-[1,1′-biphenyl]-4-carbonyl)glycyl)-1,4-dioxa-7-azaspiro[4.4]nonane-8-carboxamide]	< 0.1
N=C(N)c1csc(CNC(=O)[C@@H]2CC3(CN2C(=O)CNC(=O)c2ccc(-c4c(F)cccc4F)cc2)OCCO3)c1 [Compound 196, (S)—N-((4-carbamimidoylthiophen-2-yl)methyl)-7-((2′,6′-difluoro-[1,1′-biphenyl]-4-carbonyl)glycyl)-1,4-dioxa-7-azaspiro[4.4]nonane-8-carboxamide]	< 0.1

Same assay, conditions: Human complement C1s enzyme 1.16 nM, substrate Z-L-Lys-SBzl 100 μM, assay of Example 3; read-out: IC50 (Stars)

Compound	IC50 [µM]
COC[C@@]1(F)C[C@@H](C(=O)N[C@H](C)c2cc(C(=N)N)cs2)N(C(=O)CNC(=O)c2ccc3oc4ccccc4c3c2)C1 [Compound 222, (2S,4R)—N—((R)-1-(4-carbamimidoylthiophen-2-yl)ethyl)-1-((dibenzo[b,d]furan-2-carbonyl)glycyl)-4-fluoro-4-(methoxymethyl)pyrrolidine-2-carboxamide]	< 0.1
COC(=O)/N=C(/N)c1csc([C@@H](C)NC(=O)[C@@H]2C[C@@H](OC(F)F)CN2C(=O)CNC(=O)c2ccc3c(c2)-c2ccccc2C3(F)F)c1 [Compound 247, methyl ((E)-amino(5-((R)-1-((2S,4R)-1-((9,9-difluoro-9H-fluorene-3-carbonyl)glycyl)-4-(difluoromethoxy)pyrrolidine-2-carboxamido)ethyl)thiophen-3-yl)methylene)carbamate]	< 0.1
C[C@@H](NC(=O)[C@@H]1C[C@]2(CN(C)C)C[C@@H]2N1C(=O)CNC(=O)c1ccc2c(c1)-c1ccccc1C2(F)F)c1cc(C(=N)N)cs1 [Compound 304, (1S,3S,5S)—N—((R)-1-(4-carbamimidoylthiophen-2-yl)ethyl)-2-((9,9-difluoro-9H-fluorene-3-carbonyl)glycyl)-5-((dimethylamino)methyl)-2-azabicyclo[3.1.0]hexane-3-carboxamide]	< 0.1
COC[C@@]1(F)C[C@@H](C(=O)N[C@H](C)c2cc(C(=N)N)cs2)N(C(=O)CNC(=O)c2ccc3c(c2)C(F)(F)c2ccccc2-3)C1 [Compound 264, (2S,4R)—N—((R)-1-(4-carbamimidoylthiophen-2-yl)ethyl)-1-((9,9-difluoro-9H-fluorene-2-carbonyl)glycyl)-4-fluoro-4-(methoxymethyl)pyrrolidine-2-carboxamide]	< 0.1
N=C(N)c1csc(CNC(=O)[C@@H]2CC3(CN2C(=O)CNC(=O)c2ccc(-c4ccccc4)o2)OCCO3)c1 [Compound 297, (S)—N-((4-carbamimidoylthiophen-2-yl)methyl)-7-((5-phenylfuran-2-carbonyl)glycyl)-1,4-dioxa-7-azaspiro[4.4]nonane-8-carboxamide]	< 0.1
C[C@H](NC(=O)c1ccc(-c2ccc(F)cc2)cc1)C(=O)N1CC2(C[C@H]1C(=O)NCc1cc(C(=N)N)cs1)OCCO2 [Compound 296, (S)—N-((4-carbamimidoylthiophen-2-yl)methyl)-7-((4′-fluoro-[1,1′-biphenyl]-4-carbonyl)-L-alanyl)-1,4-dioxa-7-azaspiro[4.4]nonane-8-carboxamide]	< 0.1
C[C@@H](NC(=O)[C@@H]1CC2(CN1C(=O)CNC(=O)c1ncc(-c3ccccc3)cc1F)OCCO2)c1cc(C(=N)N)cs1 [Compound 347, (S)—N—((R)-1-(4-carbamimidoylthiophen-2-yl)ethyl)-7-((3-fluoro-5-phenylpicolinoyl)glycyl)-1,4-dioxa-7-azaspiro[4.4]nonane-8-carboxamide]	< 0.1
O=C(NCC(=O)N1CC2(C[C@H]1C(=O)NCc1cc(N3CCCC3)cs1)OCCO2)c1ccc(Oc2ccc(F)cc2)cc1 [Compound 289, (S)-7-((4-(4-fluorophenoxy)benzoyl)glycyl)-N-((4-(pyrrolidin-1-yl)thiophen-2-yl)methyl)-1,4-dioxa-7-azaspiro[4.4]nonane-8-carboxamide]	0.1 to 1
COC(=O)/N=C(/N)c1csc([C@@H](C)NC(=O)[C@@H]2C[C@](F)(CF)CN2C(=O)CNC(=O)c2ccc3c(c2)-c2ccccc2C3(F)F)c1 [Compound 250, methyl ((E)-amino(5-((R)-1-((2S,4R)-1-((9,9-difluoro-9H-fluorene-3-carbonyl)glycyl)-4-fluoro-4-(fluoromethyl)pyrrolidine-2-carboxamido)ethyl)thiophen-3-yl)methylene)carbamate]	< 0.1
CCCCCCOC(=O)/N=C(/N)c1csc([C@@H](C)NC(=O)[C@@H]2C[C@@H](OC(F)F)CN2C(=O)CNC(=O)c2ccc3c(c2)-c2ccccc2C3(F)F)c1 [Compound 258, hexyl ((E)-amino(5-((R)-1-((2S,4R)-1-((9,9-difluoro-9H-fluorene-3-carbonyl)glycyl)-4-(difluoromethoxy)pyrrolidine-2-carboxamido)ethyl)thiophen-3-yl)methylene)carbamate]	< 0.1

Same assay, conditions: Human complement C1s enzyme 1.16 nM, substrate Z-L-Lys-SBzl; assay of Example 3; read-out: IC50 (Stars)

Compound	IC50 [µM]
CS(=O)(=O)[C@@H]1C[C@@H](C(=O)N[C@H](CO)c2cc(C(=N)N)cs2)N(C(=O)CNC(=O)c2ccc3c(c2)C(F)(F)c2ccccc2-3)C1 [Compound 406, (2S,4R)—N—((R)-1-(4-carbamimidoylthiophen-2-yl)-2-hydroxyethyl)-1-((9,9-difluoro-9H-fluorene-2-carbonyl)glycyl)-4-(methylsulfonyl)pyrrolidine-2-carboxamide]	< 0.1
